Source: US20200031778A1, “NOVEL 5-SUBSTITUTED IMIDAZOLYLMETHYL DERIVATIVES” (Bayer CropScience Aktiengesellschaft, priority 2016, published 2020)

Legend:
[1] = test system: Septoria tritici; assay: Example IX-B: in vivo preventive test on Septoria tritici (leaf spot on wheat); conditions: Zymoseptoria tritici, 576 h; compounds of formula IX; 500 ppm of active ingredient; wheat plants, preventive spray; evaluated 24 days after inoculation; read-out: efficacy
How it was run: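 Wheat seedlings sprayed preventively with compound dissolved in DMSO/acetone/Tween 80 and diluted in water; solvent-only controls. Spore suspension of S. tritici sprayed 24 h later; 72 h at 18 °C/100% RH, then 21 days at 20 °C/90% RH. Efficacy scored 24 days post-inoculation, 0% = control, 100% = no disease.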

[2] = test system: Puccinia recondita; assay: Example IX-A: in vivo preventive test on Puccinia recondita (brown rust on wheat); conditions: 264 h, compounds of formula IX, 500 ppm of active ingredient, wheat plants, preventive spray, evaluated 11 days after inoculation, read-out: efficacy
How it was run: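 Young wheat plants sprayed with compound in DMSO/acetone/Tween 80 diluted in water, inoculated 24 h later with spore suspension. Incubated 24 h at 20 °C, 100% RH, then 10 days at 20 °C, 70-80% RH. Efficacy scored 11 days post-inoculation, 0% equal to solvent-treated controls, 100% no disease.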

[3] = test system: Sphaerotheca fuliginea; assay: Example IX-C: in vivo preventive test on Sphaerotheca fuliginea (powdery mildew on cucurbits); conditions: Podosphaera fuliginea, 360 h; compounds of formula IX; 500 ppm of active ingredient; gherkin plants, preventive spray; evaluated 15 days after inoculation; read-out: efficacy
How it was run: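 Young gherkin plants sprayed with compound in DMSO/acetone/Tween 80 diluted in water, then inoculated 24 h later with Sphaerotheca fuliginea spores. Kept 72 h at 18 °C/100% RH, then 12 days at 20 °C/70-80% RH; efficacy scored 15 days post-inoculation, 0% = control, 100% = no disease.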

[4] = test system: Uromyces appendiculatus; assay: Example IX-D: in vivo preventive test on Uromyces appendiculatus (bean rust); conditions: 264 h, compounds of formula IX, 500 ppm of active ingredient, bean plants, preventive spray, evaluated 11 days after inoculation, read-out: efficacy
Experimental: Example IX-D: In Vivo Preventive Test on Uromyces Appendiculatus (Bean Rust)
The active ingredients are made soluble and homogenized in a mixture of Dimethyl sulfoxide/Acetone/Tween® 80 and then diluted in water to the desired concentration.
The young plants of bean are treated by spraying the active ingredient prepared as described above. Control plants are treated only with an aqueous solution of Acetone/Dimethyl sulfoxide/Tween® 80.
After 24 hours, the plants are contaminated by spraying the leaves with an aqueous suspension of Uromyces appendiculatus spores. The contaminated bean plants are incubated for 24 hours at 20° C. and at 100% relative humidity and then for 10 days at 20° C. and at 70-80% relative humidity.
The test is evaluated 11 days after the inoculation. 0% means an efficacy which corresponds to that of the control plants while an efficacy of 100% means that no disease is observed.
control plants while an efficacy of 100% means that no disease was observed.

[5] = Log P by HPLC on reversed phase columns (EEC directive 79/831 Annex V.A8; methods [a], [b], [c]); type: physicochemical; conditions: reversed phase HPLC column; method [a]: LC-UV, acidic range, 0.1% formic acid in water and acetonitrile as eluent (linear gradient from 10% to 95% acetonitrile)
How it was run: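 Log P derived from retention times, interpolated linearly between bracketing straight-chain alkan-2-ones (3–16 carbons) of known Log P. Eluents ran acetonitrile 10% to 95% against water with 0.1% formic acid ([a], acidic), 0.001 M ammonium acetate ([b], neutral) or 0.1% phosphoric acid ([c], acidic); UV read-out.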

chromatographic logP [5] | Compound | pest or weed control at 500 ppm [1] [%] | pest or weed control at 500 ppm [2] [%] | pest or weed control at 500 ppm [3] [%] | pest or weed control at 500 ppm [4] [%]
3.53 | N#Cc1cncn1CC(=O)c1ccc(Oc2ccc(Cl)cc2)cc1Br [IX-61] | 80 to 89 | 90 to 100 | 90 to 100 | 90 to 100
3.09 | Cc1ccc(Oc2ccc(C(=O)Cn3cncc3Cl)c(Cl)c2)cc1 [IX-07] | 90 to 100 | 90 to 100 | 90 to 100 | 90 to 100
3.62 | N#Cc1cncn1CC(=O)c1ccc(Oc2ccc(Br)cc2)cc1Br [IX-67] | 90 to 100 | 90 to 100 | 90 to 100 | 90 to 100
3.37 | O=C(Cn1cncc1Cl)c1ccc(Oc2ccc(Br)cc2)cc1C(F)(F)F [IX-29] | 90 to 100 | 90 to 100 | 80 to 89 | 80 to 89
2.64 | O=C(Cn1cncc1F)c1cnc(Oc2ccc(C(F)(F)F)cc2)cc1Br [IX-111] | 90 to 100 | 80 to 89 | 90 to 100 | 90 to 100
3.37 | O=C(Cn1cncc1Cl)c1ccc(Oc2ccc(OC(F)(F)F)cc2)cc1Cl [IX-09] | 90 to 100 | 90 to 100 | 90 to 100 | 90 to 100
2.14 | O=C(Cn1cncc1F)c1ccc(Oc2ccc(Cl)cc2)nc1F [IX-88] | 90 to 100 | 70 to 79 | 90 to 100 | 80 to 89
3.17 | N#Cc1cncn1CC(=O)c1cnc(Oc2ccc(Cl)cc2)cc1C(F)(F)F [IX-109] | 90 to 100 | 70 to 79 | 90 to 100 | 90 to 100

The remaining lines, values behind:

Compound | chromatographic logP [5] | pest or weed control at 500 ppm [1] [%] | pest or weed control at 500 ppm [2] [%] | pest or weed control at 500 ppm [3] [%] | pest or weed control at 500 ppm [4] [%]
O=C(Cn1cncc1F)c1cnc(Oc2ccc(OC(F)(F)F)cc2)cc1C(F)(F)F [IX-108] | 2.89 | 90 to 100 | 80 to 89 | 90 to 100 | 90 to 100
N#Cc1cncn1CC(=O)c1ccc(Oc2ccc(Cl)cc2)nc1C(F)(F)F [IX-107] | 3.33 | 90 to 100 | 90 to 100 | 90 to 100 | 80 to 89
O=C(Cn1cncc1Cl)c1ccc(Oc2ccc(F)cc2)cc1Cl [IX-08] | 2.73 | 90 to 100 | 80 to 89 | 90 to 100 | 90 to 100
N#Cc1cncn1CC(=O)c1cnc(Oc2ccc(Cl)cc2)cc1Br [IX-92] | 3.08 | 90 to 100 | 80 to 89 | 90 to 100 | 80 to 89
N#Cc1cncn1CC(=O)c1cnc(Oc2ccc(C(F)(F)F)cc2)cc1Cl [IX-114] | 3.29 | 90 to 100 | 90 to 100 | 80 to 89 | 90 to 100
N#Cc1cncn1CC(=O)c1ccc(Oc2ccc(I)cc2)cc1Br [IX-66] | 3.8 | 90 to 100 | 90 to 100 | 90 to 100 | 90 to 100
